Laboratory results taken from US11230535B2, “CFTR regulators and methods of use thereof” (THE REGENTS OF THE UNIVERSITY OF CALIFORNIA, priority 2015, dated 2022).

Tested on: CFTR activity at the ocular surface
Assay: Ocular surface potential difference (PD) in living mice
Format: in vivo, mouse
Details: wild-type mice; for change in ocular surface PD, in words: 1-10 μM
Experimental: (§1) Open-circuit transepithelial PD were measured continuously in anesthetized mice in response to serial perfusions of different solutions over the ocular surface, as described (21). Mice were anesthetized with Avertin (2,2,2-tribromoethanol, 125 mg/kg intraperitoneal, Sigma-Aldrich, St. Louis, Mo., USA), and core temperature was maintained at 37° C. using a heating pad. Eyes were oriented with the cornea and conjunctiva facing upward and exposed by retracting the eyelid with cross-action forceps. Solutions were isosmolar (320±10 mOsM; compositions provided in ref. 21) and contained 10μ[…] Qindomethacin to prevent CFTR activation by prostaglandins. The ocular surface was perfused at 6 mL/min through plastic tubing using a multireservoir gravity pinch-valve system (ALA Scientific, Westbury, N.Y., USA) and variable-flow peristaltic pump (medium flow model; Fisher Scientific, Fair Lawn, N.J., USA). A probe catheter was fixed 1 mm above the cornea using a micropositioner and a suction cannula was positioned 3 mm from the orbit. The measuring electrode was in contact to the perfusion catheter and connected to a high-impedance voltmeter (IsoMilivolt Meter; WPI). The reference electrode was grounded via a winged 21-gauge needle filled with isosmolar saline, and inserted subcutaneously in the abdomen. Measuring and reference electrodes consisted of Ag/AgCl with 3 M KCl agar bridges.
An open-circuit potential difference (PD) method developed in our lab was used to evaluate compound activity at the ocular surface in vivo, as depicted in FIG. 3A (21). Cl^− channel function was quantified by measuring PD during continuous perfusion of the ocular surface with a series of solutions that imposed a transepithelial Cl^− gradient and contained various channel agonists and/or inhibitors. The ocular surface was first perfused with isosmolar saline to record the baseline PD. Amiloride was then added to the perfusate, followed by exchange to a low Cl^− solution in which Cl^− with an impermeant anion, gluconate. These maneuvers allow for direct visualization of CFTR activation in response to addition of candidate CFTR activators.
as §1, with “Ocular surface potential difference measurements. Open-circuit” for “Open-circuit”, “indomethacin” for “Qindomethacin”, “Measuring and reference electrodes consisted of Ag/AgCl with 3 M KCl agar bridges.” left out

Nc1ccc([N+](=O)[O-])cc1-c1nc2ccccc2n(Cc2ccccc2)c1=O [CFTRact-J027, 3-(2-amino-5-nitrophenyl)-1-benzylquinoxalin-2(1H)-one]
change in ocular surface PD, in words: large hyperpolarizations

CCN(CC)c1nc(Nc2ccccc2)nc(OC(C(F)(F)F)C(F)(F)F)n1 [CFTRact-K089, N,N-Diethyl-6-[(1,1,1,3,3,3-hexafluoropropan-2-yl)oxy]-N′-phenyl-1,3,5-triazine-2,4-diamine]
hyperpolarization in ocular surface potential difference: ~8.5 mV | change in ocular surface PD, in words: large hyperpolarizations

CC(C)(C)c1cc(C(C)(C)C)c(NC(=O)c2c[nH]c3ccccc3c2=O)cc1O [VX-770, reference compound]
change in ocular surface PD, in words: minimal changes in ocular surface PD
